Results on 35 compounds are retold here after a flash point compilation (Sun et al. 2020).

Test in series [1]: not given
This is another data set of the same source.

Test in series [2]: not given
This is another data set of the same source.

Test in series [3]: not given
This is another data set of the same source.

Structures can show the parent of a compound that is named as a salt.

`CCC(Cl)Cl` [1,1-dichloropropane] displayed a flash point of 7 °C. The compound further displayed a flash point in series [1] of 21.00 °C.
In turn, `ClCC(Cl)CCl` [1,2,3-Trichloropropane] gave a flash point in series [2] of 82.00 °C.
Compound `Clc1ccc(Cl)c(Cl)c1` [1,2,4-Trichlorobenzene] came in with a flash point in series [2] of 99.00 °C.
With `CC(O)CCO` (centres undefined) [1,3-Butylene glycol], the flash point in series [2] was 121.00 °C.
Same read-out and setting: the value for `ClCCCCl` [1,3-Dichloropropane] was 35.00 °C; that for `NCCCN` [1,3-Propanediamine] was 24.00 °C.
`ClCCCCl` [1,3-dichloropropane]: the flash point worked out at 32 °C. The flash point in series [3] was found to be 21 °C.
`ClCCCCCl` [1,4-Dichlorobutane] showed a flash point in series [2] of 52.00 °C.
Compound `ClCCCCCl` [1,4-dichlorobutane] came in with a flash point of 40 °C. For the same compound, the flash point in series [3] is 43 °C.
For the compound `OCCCCCO` [1,5-Pentanediol], the flash point in series [2] is 135.00 °C.
The compound `ClCCCCCCl` [1,5-dichloropentane] gave a flash point of 26 °C. The compound further displayed a flash point in series [3] of 63 °C.
Consider `CCCCCl` [1-chlorobutane], for which the flash point was -12 °C. Besides, the flash point in series [1] is -7.00 °C.
Compound `CCCCCCCl` [1-chlorohexane] came in with a flash point of 26 °C. The flash point in series [1] was found to be 35.00 °C.
Taken in the same sequence, the figures for `CCCCCCCCCl` [1-chlorooctane] were 63 °C and 70.00 °C.
The compound `COCC(C)O` (centres undefined) [1-methoxy-2-propanol] came in with a flash point of 38 °C. For the same compound, in series [3], the flash point amounted to 31 °C.
Turning to `C=CCCCCCCCCCCCC` [1-tetradecene], the flash point was determined as 110 °C. The same compound had a flash point in series [3] of 97 °C.
`CC(O)C(C)O` (centres undefined) [2,3-Butylene glycol]: in series [2], the flash point was 85.00 °C.
Compound `CC(C)=CC(C)(C)C` [2,4,4-Trimethyl-2-pentene] showed a flash point in series [2] of 2.00 °C.
Turning to `CC(=O)CC(C)=O` [2,4-Pentanedione], the flash point in series [2] came to 41.00 °C.
In the case of `Nc1cc(Cl)ccc1Cl` [2,5-Dichloroaniline], the flash point in series [2] worked out at 166.00 °C.
For the compound `CCC(C=O)CC` [2-Ethyl butyraldehyde], in series [2], the flash point amounted to 21.00 °C.
Same read-out and setting: the value for `CCCC=C(C=O)CC` [2-Ethyl-3-propyl acrolein] was 68.00 °C; that for `Oc1ccc2ccccc2c1` [2-Naphthol] was 153.00 °C.
`CCCC(C)C` [2-methylpentane] displayed a flash point of -32 °C. In series [1], this compound yielded a flash point of -29.00 °C.
`COCCCN` [3-methoxypropylamine] gave a flash point of 32 °C. In series [3], the flash point is 23 °C.
The compound `CN(C)C1CCCCC1` [N,N-dimethylcyclohexylamine] came in with a flash point of 39 °C. This compound also returned a flash point in series [3] of 41 °C.
In the case of `CC#N` [acetonitrile], the flash point is 13 °C. In addition, in series [1], the flash point amounted to 6.00 °C.
`C1=CCCC1` [cyclopentene]: the flash point is -0 °C. The compound also returned a flash point in series [3] of -30 °C.
The compound `CCCCCCC=O` [heptanal] registered a flash point of 41 °C. Moreover, the flash point in series [1] was determined as 35.00 °C.
In the same order, the values of `CCCCCC=O` [hexanal] are 25 °C and 32.00 °C.
`C=C1CCCCC1` [methylenecyclohexane] gave a flash point of -6 °C. In series [3], this compound came in with a flash point of -2 °C.
As to `CCCCCCCC(=O)Cl` [octanoyl chloride], the flash point was found to be 82 °C. In series [1], this compound registered a flash point of 81.00 °C.
For the compound `CCCOC=O` [propyl formate], the flash point was -0 °C. For the same compound, in series [1], the flash point was -3.00 °C.
Regarding `COC(OC)OC` [trimethoxymethane], the flash point was 15 °C.
In turn, `CCCCC#N` [valeronitrile] displayed a flash point of 40 °C.
